# Results as given in PubChem BioAssay AID1963972 (Molecular Pharmacology Branch, DTP, NCI, 2024).
# Where “and” joins values, the source holds several entries; their conditions need not be identical. Identical values can stand only once.
# System: 945468-187-T-J2-PDC spheroids viability
# Assay: Anticancer human tumor 945468-187-T-J2-PDC patient-derived rectal carcinoma cell line growth inhibition [PI3K]
# Conditions: spheroids with HUVEC and MSC; for viability, T/C: stronger effect = lower value
# How it was run: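 Complex 3D spheroids (cancer cells + endothelial HUVEC + mesenchymal stem cells); drug pairs of targeted agent x inavolisib/alpelisib/duvelisib/copanlisib; half-log series from ~Cmax, max 10 microM if Cmax unknown; endpoint viability.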
# [1] = curve of first compound, second compound 0.0316 µM
# [2] = curve of first compound, second compound 0.1 µM
# [3] = curve of first compound, second compound 0.316 µM
# [4] = curve of first compound, second compound 1 µM
# [5] = second compound 0.0316 µM, first compound 0.0316 µM
# [6] = second compound 0.0316 µM, first compound 0.1 µM
# [7] = second compound 0.0316 µM, first compound 0.316 µM
# [8] = second compound 0.0316 µM, first compound 1 µM
# [9] = second compound 0.1 µM, first compound 0.0316 µM
# [10] = second compound 0.1 µM, first compound 0.1 µM
# [11] = second compound 0.1 µM, first compound 0.316 µM
# [12] = second compound 0.1 µM, first compound 1 µM
# [13] = second compound 0.316 µM, first compound 0.0316 µM
# [14] = second compound 0.316 µM, first compound 0.1 µM
# [15] = second compound 0.316 µM, first compound 0.316 µM
# [16] = second compound 0.316 µM, first compound 1 µM
# [17] = second compound 1 µM, first compound 0.0316 µM
# [18] = second compound 1 µM, first compound 0.1 µM
# [19] = second compound 1 µM, first compound 0.316 µM
# [20] = second compound 1 µM, first compound 1 µM
# [21] = curve of first compound, second compound 0.00316 µM
# [22] = curve of first compound, second compound 0.01 µM
# [23] = second compound 0.00316 µM, first compound 0.0316 µM
# [24] = second compound 0.00316 µM, first compound 0.1 µM
# [25] = second compound 0.00316 µM, first compound 0.316 µM
# [26] = second compound 0.00316 µM, first compound 1 µM
# [27] = second compound 0.00316 µM, first compound 3.16 µM
# [28] = second compound 0.00316 µM, first compound 10 µM
# [29] = second compound 0.01 µM, first compound 0.0316 µM
# [30] = second compound 0.01 µM, first compound 0.1 µM
# [31] = second compound 0.01 µM, first compound 0.316 µM
# [32] = second compound 0.01 µM, first compound 1 µM
# [33] = second compound 0.01 µM, first compound 3.16 µM
# [34] = second compound 0.01 µM, first compound 10 µM
# [35] = second compound 0.0316 µM, first compound 3.16 µM
# [36] = second compound 0.0316 µM, first compound 10 µM
# [37] = second compound 0.1 µM, first compound 3.16 µM
# [38] = second compound 0.1 µM, first compound 10 µM
# [39] = second compound 0.316 µM, first compound 3.16 µM
# [40] = second compound 0.316 µM, first compound 10 µM
# [41] = second compound 1 µM, first compound 3.16 µM
# [42] = second compound 1 µM, first compound 10 µM
# 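Also: spheroids exposed to compounds for seven days before reading.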
compound,measurement,setting,value
CC(Nc1ncnc2nc[nH]c12)c1cc2cccc(Cl)c2c(=O)n1-c1ccccc1 (stereo unspecified),"viability, T/C",compound 0.1 µM,91.9% [middle of 8 runs]
same,"viability, T/C",compound 0.316 µM,96.3% [middle of 8 runs]
same,"viability, T/C",compound 10 µM,103% [middle of 8 runs]
same,IC50,"compound alone, run of 04/25/2023",> 10 µM
CCN1CCN(Cc2ccc(Nc3ncc(F)c(-c4cc(F)c5nc(C)n(C(C)C)c5c4)n3)nc2)CC1 + Cc1nc(NC(=O)N2CCCC2C(N)=O)sc1-c1ccnc(C(C)(C)C(F)(F)F)c1,IC50,[1],> 1 µM
same,IC50,[2],> 1 µM
same,IC50,[3],> 1 µM
same,IC50,[4],> 1 µM
same,IC50,"curve of first compound, second compound 3.16 µM",0.753 µM
same,IC50,"curve of first compound, second compound 10 µM",0.322 µM
same,"viability, T/C","second compound 0.0316 µM, first compound 0.00316 µM",84.8%
same,"viability, T/C","second compound 0.0316 µM, first compound 0.01 µM",103%
same,"viability, T/C",[5],123%
same,"viability, T/C",[6],91.5%
same,"viability, T/C",[7],107%
same,"viability, T/C",[8],105%
same,"viability, T/C","second compound 0.1 µM, first compound 0.00316 µM",124%
same,"viability, T/C","second compound 0.1 µM, first compound 0.01 µM",104%
same,"viability, T/C",[9],131%
same,"viability, T/C",[10],88.9%
same,"viability, T/C",[11],103%
same,"viability, T/C",[12],76.2%
same,"viability, T/C","second compound 0.316 µM, first compound 0.00316 µM",103%
same,"viability, T/C","second compound 0.316 µM, first compound 0.01 µM",91.8%
same,"viability, T/C",[13],123%
same,"viability, T/C",[14],104%
same,"viability, T/C",[15],118%
same,"viability, T/C",[16],73.6%
same,"viability, T/C","second compound 1 µM, first compound 0.00316 µM",118%
same,"viability, T/C","second compound 1 µM, first compound 0.01 µM",108%
same,"viability, T/C",[17],115%
same,"viability, T/C",[18],108%
same,"viability, T/C",[19],96.8%
same,"viability, T/C",[20],58.9%
same,"viability, T/C","second compound 3.16 µM, first compound 0.00316 µM",119%
same,"viability, T/C","second compound 3.16 µM, first compound 0.01 µM",92.9%
same,"viability, T/C","second compound 3.16 µM, first compound 0.0316 µM",111%
same,"viability, T/C","second compound 3.16 µM, first compound 0.1 µM",93.5%
same,"viability, T/C","second compound 3.16 µM, first compound 0.316 µM",84.2%
same,"viability, T/C","second compound 3.16 µM, first compound 1 µM",38.7%
same,"viability, T/C","second compound 10 µM, first compound 0.00316 µM",81.5%
same,"viability, T/C","second compound 10 µM, first compound 0.01 µM",84.4%
same,"viability, T/C","second compound 10 µM, first compound 0.0316 µM",94%
same,"viability, T/C","second compound 10 µM, first compound 0.1 µM",66.7%
same,"viability, T/C","second compound 10 µM, first compound 0.316 µM",52.8%
same,"viability, T/C","second compound 10 µM, first compound 1 µM",28.1%
CCCS(=O)(=O)Nc1ccc(F)c(C(=O)c2c[nH]c3ncc(-c4ccc(Cl)cc4)cc23)c1F + CC(Nc1ccc2c(c1)OCCn1cc(N3C(=O)OCC3C(F)F)nc1-2)C(N)=O,IC50,[21],> 10 µM
same,IC50,[22],4.28 µM
same,IC50,[1],5.45 µM
same,IC50,[2],6.98 µM
same,IC50,[3],5.9 µM
same,IC50,[4],5.88 µM
same,"viability, T/C",[23],115%
same,"viability, T/C",[24],115%
same,"viability, T/C",[25],113%
same,"viability, T/C",[26],97.1%
same,"viability, T/C",[27],74.7%
same,"viability, T/C",[28],53.6%
same,"viability, T/C",[29],113%
same,"viability, T/C",[30],115%
same,"viability, T/C",[31],105%
same,"viability, T/C",[32],77.1%
same,"viability, T/C",[33],74.8%
same,"viability, T/C",[34],7.68%
same,"viability, T/C",[5],103%
same,"viability, T/C",[6],98.8%
same,"viability, T/C",[7],98.8%
same,"viability, T/C",[8],92.1%
same,"viability, T/C",[35],89.2%
same,"viability, T/C",[36],6.32%
same,"viability, T/C",[9],92.3%
same,"viability, T/C",[10],109%
same,"viability, T/C",[11],107%
same,"viability, T/C",[12],92.8%
same,"viability, T/C",[37],90.2%
same,"viability, T/C",[38],32.3%
same,"viability, T/C",[13],83.4%
same,"viability, T/C",[14],88.8%
same,"viability, T/C",[15],85.3%
same,"viability, T/C",[16],85.8%
same,"viability, T/C",[39],78.1%
same,"viability, T/C",[40],26.1%
same,"viability, T/C",[17],78.2%
same,"viability, T/C",[18],81%
same,"viability, T/C",[19],77.4%
same,"viability, T/C",[20],87.9%
same,"viability, T/C",[41],80.3%
same,"viability, T/C",[42],24%
C#Cc1c(F)ccc2cc(O)cc(-c3ncc4c(N5CC6CCC(C5)N6)nc(OCC56CCCN5CC(F)C6)nc4c3F)c12 (stereo unspecified),"viability, T/C",compound 0.0316 µM,109% [middle of 4 runs]
same,"viability, T/C",compound 0.316 µM,106% (2×) and 90.2% and 116%
same,IC50,curve of compound,> 10 µM
Cn1cnc2c(F)c(Nc3ccc(Br)cc3Cl)c(C(=O)NOCCO)cc21,"viability, T/C",compound 0.949 µM,83.3% [middle of 4 runs]
same,"viability, T/C",compound 3 µM,79.8% [middle of 4 runs]
same,IC50,curve of compound,> 3 µM
C=CC(=O)N1CCN(c2nc(=O)n(-c3c(C)ccnc3C(C)C)c3nc(-c4c(O)cccc4F)c(F)cc23)C(C)C1 (stereo unspecified) + CC(Nc1ccc2c(c1)OCCn1cc(N3C(=O)OCC3C(F)F)nc1-2)C(N)=O,IC50,[21],> 10 µM
same,IC50,[22],> 10 µM
same,IC50,[1],> 10 µM
same,IC50,[2],> 10 µM
same,IC50,[3],> 10 µM
same,IC50,[4],> 10 µM
same,"viability, T/C",[23],117%
same,"viability, T/C",[24],108%
same,"viability, T/C",[25],114%
same,"viability, T/C",[26],85.1%
same,"viability, T/C",[27],101%
same,"viability, T/C",[28],101%
same,"viability, T/C",[29],166%
same,"viability, T/C",[30],98%
same,"viability, T/C",[31],101%
same,"viability, T/C",[32],120%
same,"viability, T/C",[33],111%
same,"viability, T/C",[34],123%
same,"viability, T/C",[5],124%
same,"viability, T/C",[6],117%
same,"viability, T/C",[7],103%
same,"viability, T/C",[8],116%
same,"viability, T/C",[35],91.5%
same,"viability, T/C",[36],83.6%
same,"viability, T/C",[9],127%
same,"viability, T/C",[10],88.1%
same,"viability, T/C",[11],87.7%
same,"viability, T/C",[12],98.4%
same,"viability, T/C",[37],96.3%
same,"viability, T/C",[38],111%
same,"viability, T/C",[13],101%
same,"viability, T/C",[14],101%
same,"viability, T/C",[15],79.7%
same,"viability, T/C",[16],110%
same,"viability, T/C",[39],95.3%
same,"viability, T/C",[40],80.1%
same,"viability, T/C",[17],89.2%
same,"viability, T/C",[18],98.1%
same,"viability, T/C",[19],81.8%
same,"viability, T/C",[20],83.4%
same,"viability, T/C",[41],81.9%
same,"viability, T/C",[42],83.7%
